In patent US4489062A, “Pharmaceutical compounds, preparation, use and intermediates therefor and their preparation” (priority 1982, dated 1984):
Where a SMILES comes first, the peptide text is derived from it. [ ]: non-standard residue; d: D form. Phe(4-NO2) = N[C@@H](Cc1ccc([N+](=O)[O-])cc1)C(=O)O

Tests used:
Type in all cases: in vivo
Male mice (CFLP strain) = test: Hotplate test; settings: 55° C. hotplate, 15 mins. after treatment, reaction time twice the pretreatment figure, Ex. compounds calculated as the peptide per se; for ED50: Mus musculus, sc
Excerpt: (§1) (1) Both the hotplate test (Woolfe and MacDonald, J. Pharmacol. Exp. Ther. 80:300, 1944) and the irritant-induced writhing (stretch) test (Vander Wende and Margolin, Fed. Proc. 15:494, 1956) are standard in the art for the investigation of analgesic activity. Whereas it is believed that the pain in the latter can be ameliorated either centrally or peripherally, it is thought that that induced in the hotplate test is affected only at the central level.
Male mice (CFLP strain, Hacking and Churchill) were individually placed in a copper-bottomed perspex box suspended in a water bath at 55° C. and observed for signs of discomfort such as shaking or licking the paws, the reaction time (up to a maximum of 30 secs.) being recorded. Groups of five animals then received either a test compound or saline vehicle (0.85%) control by subcutaneous injection, the test being repeated at 15 mins. after treatment. The ED50 figures for the test compounds were calculated from the number of animals having a posttreatment reaction time which was twice the pretreatment figure.

female CD1 mice [1] = test: Irritant-induced writhing test, acetic acid; settings: s.c. 15 mins. prior to i.p. 0.6% acetic acid, Ex. compounds calculated as the peptide per se; for ED50: Mus musculus, 0.25 h
Excerpt: as §1
(§2) (i) Acetic Acid. Groups of five female CD1 mice (Charles River) received either a test compound or saline vehicle (0.85%) control by subcutaneous injection 15 mins. (unless otherwise indicated) prior to an intraperitoneal injection of 0.6% acetic acid at a dose volume of 25 ml/kg. After a further 20 mins. the writhing or stretching movements induced by the irritant were counted over a 21/2 min. period, a writhe/stretch being identified as an extension of a hindlimb accompanied by constriction of the abdomen.
(§3) The ED50 figures for the test compounds were calculated, using linear regression analysis, as the dose in the presence of which only half the number of writhes/stretches was induced compared with the controls.

female CD1 mice [2] = test: Irritant-induced writhing test, phenylbenzoquinone (PBQ); settings: s.c. 15 mins. prior to PBQ 2.5 mg/kg, Ex. compounds calculated as the peptide per se; for ED50: Mus musculus, 0.25 h
Excerpt: as §1, §2
(ii) Phenylbenzoquinone (PBQ). This test was carried out in a parallel manner to that employing acetic acid, […], except that the period over which the writhing/stretching movements were counted began 10 mins. after administration of the PBQ irritant, the latter being given at a dosage of 2.5 mg/kg and in a dose volume of 10 ml/kg.
as §3

male TFW mice = test: Antagonism by quaternary opioid (N-methylnalorphine) in acetic acid writhing test; settings: for ED50 (mg/kg, s.c.) Saline control (b) / ED50: acetic acid writhing, saline i.p. 20 mins. before test compound s.c., Ex. compounds calculated as the peptide per se; for Dose ratio (a):(b): ratio of equiactive doses in presence and absence of N-methylnalorphine, calculated from the linear regression of the dose/response curves; for ED50: Mus musculus, 20 min, read-out: ED50 (mg/kg, s.c.) Saline control (b)
Excerpt: (3) The analgesia induced by the peptides in the writhing test upon peripheral (parenteral) administration is antagonised by parenteral administration of the quaternary opioid antagonist N-allyl-normorphine methiodide (N-methylnalorphine; Koczka et al, Acta Chim. Acad. Sci. Hung. 51:393, 1967), i.e. a higher dose of the peptide is required in the presence than in the absence of the opioid for the same effect. As penetration of the blood-brain barrier by the quaternary compound is minimal (c.f. Tavani et al, European J. Pharmacol. 59:151-154, 1979) both the peptide-induced analgesia and the antagonism thereof are effected at the peripheral level.
Groups of six male TFW mice (Tuck) received by intraperitoneal injection either N-methylnalorphine (16 mg/kg) or saline vehicle (0.85%) control at a volume of 10 ml/kg followed after 20 mins. by a solution of the test compound in saline (10 ml/kg, subcutaneous) and after a further 30 mins. by 0.6% acetic acid (25 ml/kg, intraperitoneal). The total number of writhes/stretches per group was then determined over the 5 min. period commencing 15 mins. after administration of the acetic acid. Using linear regression analysis the ED50 figures for the test compounds were calculated (defined as in (B) supra) together with the dose ratios therefor, i.e. the ratios of the dose of compound required for equiactive antinociceptive effect in respectively the presence and the absence of the quaternary compound.

Female Cobs Wistar rats = test: Antidiarrhoeal activity (castor oil-induced diarrhoea); settings: calculated as the peptide per se; for ED50 (mg/kg, s.c.) antidiarrhoeal, 1.5 hrs.: 1.5 hrs. post castor oil; for ED50 (mg/kg, s.c.) antidiarrhoeal, 2.0 hrs.: 2.0 hrs. post castor oil; for ED50 (mg/kg, s.c.) antidiarrhoeal, 3.0 hrs.: 3.0 hrs. post castor oil
Description: Female Cobs Wistar rats (Charles River) were starved for 24 hours prior to subcutaneous administration of the test compound as a solution in 0.85% (w/w) saline and at a volume of 10 ml/kg. Fifteen minutes after the compound each rat received 1 ml. castor oil given orally and the animals were then observed for the appearance of diarrhoea.

guinea pigs = test: Antitussive activity (citric acid aerosol-induced cough); settings: s.c. 30 minutes before 30% citric acid aerosol; calculated as the peptide per se; 95% confidence limits 0.04-2.6 mg/kg
Description: In this test procedure, a modification of that described by Boura et al., Br. J. Pharmac., 39/1 (1970) 225, guinea pigs were subjected to an aerosol containing 30% citric acid, 30 minutes after subcutaneous administration of test compound as a solution in 0.85% (w/w) saline, and the number of coughs during a 121/2-minute exposure counted.

marmosets = test: Toxicology, 14-day subcutaneous administration, marmosets; settings: s.c. daily for 14 days at 7.5, 15 or 30 mg/kg per day (as peptide per se)
Description: (§4) The diacetate product of Example 1 was administered subcutaneously to rats and marmosets as a solution in 0.85% (w/w) saline at a volume of 0.1 ml/100 g bodyweight. For each species the compound was given daily for 14 days at a dose (calculated as the peptide per se) selected from 7.5, 15 and 30 mg/kg bodyweight per day.

rats = test: Toxicology, 14-day subcutaneous administration, rats; settings: rat; s.c. daily for 14 days at 7.5, 15 or 30 mg/kg per day (as peptide per se)
Description: as §4

Compound | ED50 (Male mice (CFLP strain)) | ED50 (female CD1 mice [1]) | ED50 (mg/kg, s.c.), hotplate test (Male mice (CFLP strain)) | ED50 (mg/kg, s.c.) Acetic acid writhing (female CD1 mice [1]) | ED50 (mg/kg, s.c.) PBQ writhing (female CD1 mice [2]) | ED50 (mg/kg, s.c.) Saline control (b) (male TFW mice) | Dose ratio (a):(b) (male TFW mice) | ED50 (mg/kg, s.c.) antidiarrhoeal, 1.5 hrs. (Female Cobs Wistar rats) | ED50 (mg/kg, s.c.) antidiarrhoeal, 2.0 hrs. (Female Cobs Wistar rats) | ED50 (mg/kg, s.c.) antidiarrhoeal, 3.0 hrs. (Female Cobs Wistar rats) | ED50 (female CD1 mice [2]) | ED50 (male TFW mice) | ED50 (dose required to reduce the number of coughs by 50%) (guinea pigs) | clinical signs observed (marmosets) | toxicity attributable to the compound (rats)
CC(C)=CCN1CCC2(C)c3cc(O)ccc3CC1C2C (stereo not drawn) [Pentazocine, reference compound] | > 100 mg/kg | 2.3 mg/kg | – | – | – | – | – | – | – | – | – | – | – | – | –
H--Tyr--D--Met(Me)--Gly--Phe(4NO2)--Pro.NH2 chloride, hydrochloride [Ex. 2] | – | – | 129.5 mg/kg | 1.2 mg/kg | 4.6 mg/kg | 1.5 mg/kg | 3.3 | 0.16 mg/kg | 0.89 mg/kg | 8.61 mg/kg | – | – | – | – | –
CN1CC[C@]23c4c5ccc(O)c4O[C@H]2[C@@H](O)C=C[C@H]3[C@H]1C5 [Morphine, reference compound] | 1.8 mg/kg | – | – | – | – | – | – | – | – | – | 0.38 mg/kg | 0.4 mg/kg | – | – | –
N=C(N)NCCC[C@@H](NC(=O)[C@@H](N)Cc1ccc(O)cc1)C(=O)NCC(=O)N[C@@H](Cc1ccc([N+](=O)[O-])cc1)C(=O)N1CCC[C@H]1C(N)=O [Ex. 1, H--Tyr--D--Arg--Gly--Phe(4--NO2)--Pro.NH2 diacetate] (H-Y[dR]G[Phe(4-NO2)]P-NH2) | – | – | 94.8 mg/kg | 4.3 mg/kg | 4.0 mg/kg | 4.6 mg/kg | 4.1 | 0.79 mg/kg | 3.19 mg/kg | 54.9 mg/kg | – | – | 0.26 mg/kg | transient post-dose vomiting and salivation at 30 mg/kg and to a lesser extent at the lower doses | No toxicity attributable to the compound was seen
COc1ccc2c(c1)c(CC(=O)O)c(C)n2C(=O)c1ccc(Cl)cc1 [Indomethacin, reference compound] | > 100 mg/kg | – | – | – | – | – | – | – | – | – | 0.9 mg/kg | – | – | – | –
CCC(=O)O[C@](Cc1ccccc1)(c1ccccc1)[C@H](C)CN(C)C [Dextropropoxyphene, reference compound] | 25.9 mg/kg | 4.2 mg/kg | – | – | – | – | 1.0 | – | – | – | 2.6 mg/kg | 6.8 mg/kg | – | – | –
N--AmidinoTyr--D--Met(Me)--Gly--Phe(4NO2)--Pro.NH2 chloride, hydrochloride [Ex. 4] | – | – | 43.8 mg/kg | 0.6 mg/kg | 1.0 mg/kg | 0.7 mg/kg | 4.2 | 0.07 mg/kg | 0.14 mg/kg | 0.84 mg/kg | – | – | – | – | –
